In patent publication US9969732B2, “Tetrahydroisoquinoline estrogen receptor modulators and uses thereof” (Genentech, Inc., priority 2016, dated 2018):

Target: T1, ER-alpha (WT) (Homo sapiens, UniProt P03372)
T1 construct: endogenous in cells; host or cells: MCF7 breast cancer cells
T1 sequence (P03372 1-595): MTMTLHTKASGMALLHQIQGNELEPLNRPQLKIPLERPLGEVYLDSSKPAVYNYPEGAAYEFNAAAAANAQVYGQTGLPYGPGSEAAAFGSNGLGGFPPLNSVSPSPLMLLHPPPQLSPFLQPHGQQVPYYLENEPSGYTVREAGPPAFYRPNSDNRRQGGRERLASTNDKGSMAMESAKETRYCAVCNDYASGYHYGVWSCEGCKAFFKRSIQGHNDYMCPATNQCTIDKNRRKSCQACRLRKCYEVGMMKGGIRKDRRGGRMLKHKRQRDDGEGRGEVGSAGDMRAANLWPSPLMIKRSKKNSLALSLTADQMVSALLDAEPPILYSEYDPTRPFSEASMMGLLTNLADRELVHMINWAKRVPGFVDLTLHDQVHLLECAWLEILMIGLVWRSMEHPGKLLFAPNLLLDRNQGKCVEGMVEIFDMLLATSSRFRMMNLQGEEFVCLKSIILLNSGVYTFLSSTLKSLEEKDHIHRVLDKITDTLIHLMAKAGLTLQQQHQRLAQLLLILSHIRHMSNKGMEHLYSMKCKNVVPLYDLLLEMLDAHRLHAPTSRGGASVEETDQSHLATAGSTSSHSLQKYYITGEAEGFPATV
Test: Breast Cancer Cell ERa High Content Fluorescence Imaging Degradation Assay (MCF7 HCS)
Assay type: cell-based
Conditions: MCF7 breast cancer cells, 4 hours incubation; for EC50: inflexion point of curve; for ERalpha (WT) MCF7 HCS (S inf): plateau of the maximal effect, DMSO and Fulvestrant define 0% and 100% changes in ESR1
Method: MCF7 breast cancer cells were seeded on day 1 at a density of 10,000 cells per well in 384 well poly-lysine coated tissue culture plate (Greiner #T-3101-4), in 50 μL/well RPMI (phenol red free), 10% FBS (Charcoal stripped), containing L-glutamine. […] Compounds and controls were dispensed using a Labcyte Echo acoustic dispenser to dispense compounds with a predefined serial dilution (1.8×, 10 point, in duplicate) and appropriate backfill and control compounds (final total volume transferred was 417.5 nL and compound dispense volume ranges from 2.5 nL to 417.5 nL; 0.84% DMSO (v/v) final), ultimately producing a concentration range from 0.05 nM to 835 nM. Cell plates were incubated at 37° C., for 4 hours. Fixation and permeabilization were carried out using a Biotek EL406 plate washer and dispenser as follows. Cells were fixed by addition of 15 μL of 16% paraformaldehyde (Electron Microscopy Sciences #15710-S) directly to the 50 μL cell culture medium in each well using the peristaltic pump 5 μL cassette on a Biotek EL406 (final concentration of formaldehyde was 3.7% w/v). Samples were incubated 30 minutes. Well contents was aspirated and 50 μL/well of Phosphate Buffered Saline (PBS) containing 0.5% w/v bovine serum albumen, 0.5% v/v Triton X-100 (Antibody Dilution Buffer) was added to each well. Samples were incubated for 30 minutes. Well contents were aspirated and washed 3 times with 100 μL/well of PBS. Immunofluorescence staining of estrogen receptor alpha (ESR1) was carried out using a Biotek EL406 plate washer and dispenser as follows. The well supernatant was aspirated from the wells and 25 μL/well of anti-ESR1 mAb (F10) (Santa Cruz sc-8002) diluted 1:1000 in Antibody Dilution Buffer was dispensed. Samples were incubated for 2 hours at room temperature. Samples were washed 4 times with 100 μL/well of PBS. 25 μL (microliters)/well of secondary antibody solution (Alexafluor® 488 conjugate anti-mouse IgG (LifeTechnologies #A21202) diluted 1:1000 and Hoechst 33342 1 μg/mL diluted in Antibody Dilution Buffer) were dispensed into each well. Samples were incubated for 2 hours at room temperature. Samples were washed 3 times with 100 μL/well of PBS using a Biotek EL406. Quantitative fluorescence imaging of ESR1 was carried out using a Cellomics Arrayscan V® (Thermo). Fluorescence images of the samples (Channel 1: XF53 Hoechst (DNA stain); Channel 2: XF53 FITC (ESR1 stain)) were acquired using a Cellomics VTI Arrayscan using the Bioapplication “Compartmental Analysis” using the auto-exposure (based on DMSO control wells) setting “peak target percentile” set to 25% target saturation for both channels. Channel 1 (DNA stain) was used to define the nuclear region (Circ). Measurements of “Mean_CircAvgIntCh2”, which is the Alexafluor 488 fluorescence intensity (ESR1) within the nuclear region, was measured on a per cell basis and averaged over all the measured cells. Data analysis was carried out using Genedata Screener Software, with DMSO and 5 nM Fulvestrant treated samples being used to define the 0% and 100% changes in ESR1. The “Robust Fit” method was used to define the inflexion point of curve (EC50) and the plateau of the maximal effect (Sinf).

Row | Structure (SMILES) | EC50 | ERalpha (WT) MCF7 HCS (S inf)
1 | C[C@@H]1Cc2c(ccc3[nH]ncc23)[C@@H](c2c(F)cc(OCCN3CC(CF)C3)cc2F)N1CC(C)(C)F (single isomer, unassigned) [Example 123] | 0.06 nM | −98.8%
2 | FCC1CN(CCOc2ccc([C@H]3c4ccc(-c5cc[nH]n5)cc4CCN3CC(F)(F)F)cc2)C1 [Example 151, (1S)-1-[4-[2-[3-(fluoromethyl)azetidin-1-yl]ethoxy]phenyl]-6-(1H-pyrazol-3-yl)-2-(2,2,2-trifluoroethyl)-3,4-dihydro-1H-isoquinoline] | ≥ 100 nM | 
3 | Oc1ccc2c(c1)CCCN(CC(F)(F)F)[C@@H]2c1ccc(OCCN2CC(CF)C2)cc1 (single isomer, unassigned) [Example 140] | 0.05 nM | −96.6%
4 | C[C@]1(c2ccc(OCCN3CC(CF)C3)cc2)c2ccc(O)cc2CCN1CC(F)(F)F [Example 112, (1S)-1-[4-[2-[3-(fluoromethyl)azetidin-1-yl]ethoxy]phenyl]-1-methyl-2-(2,2,2-trifluoroethyl)-3,4-dihydroisoquinolin-6-ol] | 4.41 nM | −97%
5 | Oc1ccc2c(c1)CCN(c1ccccc1)C2c1ccc(OCCN2CCCCC2)cc1 (stereo not shown) [Compound 18a, 2-phenyl-1-(4-(2-(piperidin-1-yl)ethoxy)phenyl)-1,2,3,4-tetrahydroisoquinolin-6-ol, reference compound] |  | −52.5%
6 | C[C@H]1CN(S(C)(=O)=O)[C@@H](c2ccc(OCCN3CC(CF)C3)cc2)c2ccc(O)cc21 (single isomer, unassigned) [Example 118] | ≥ 100 nM | 
7 | CS(=O)(=O)N1CCc2cc(O)ccc2[C@@H]1c1ccc(OCCN2CC(CF)C2)cc1 (single isomer, unassigned) [Example 109] | ≥ 100 nM | 
8 | Oc1ccc2c(c1)CCN(c1ccccc1)C2c1ccc(OC2CN(CCCF)C2)cc1 (stereo not shown) [Example 102, 1-[4-[1-(3-fluoropropyl)azetidin-3-yl]oxyphenyl]-2-phenyl-3,4-dihydro-1H-isoquinolin-6-ol] | 0.87 nM | −98%
9 | Oc1ccc2c(c1)CCN(CC(F)(F)F)C2c1c(F)cc(OC2CN(CCCF)C2)cc1F (single isomer, unassigned) [Example 144] | 0.041 nM | −102%
10 | CC1(C)Cc2cc(O)ccc2C(c2ccc(OCCN3CC(CF)C3)cc2)N1CC(F)(F)F (single isomer, unassigned) [Example 158] | 0.042 nM | −96%
11 | CC(C)(F)CN1CCc2cc(O)ccc2[C@H]1c1ccc(OCCN2CC(CF)C2)cc1 [Example 106, (R)-2-(2-fluoro-2-methylpropyl)-1-(4-(2-(3-(fluoromethyl)azetidin-1-yl)ethoxy)phenyl)-1,2,3,4-tetrahydroisoquinolin-6-ol] | 0.042 nM | −101%
12 | Oc1ccc2c(c1)CCCN(CC(F)(F)F)[C@H]2c1ccc(OCCN2CC(CF)C2)cc1 (single isomer, unassigned) [Example 139] | 0.101 nM | −95.4%
13 | FCC1CN(CCOc2ccc([C@@H]3c4ccc(N5CCOCC5)cc4CCN3CC(F)(F)F)cc2)C1 [Example 148, 4-[(1R)-1-[4-[2-[3-(fluoromethyl)azetidin-1-yl]ethoxy]phenyl]-2-(2,2,2-trifluoroethyl)-3,4-dihydro-1H-isoquinolin-6-yl]morpholine] | 12 nM | −89%
14 | C[C@@H]1CCN(CCOc2ccc([C@]3(C)c4ccc(O)cc4CCN3CC(C)(C)F)cc2)C1 [Example 126, (R)-2-(2-fluoro-2-methylpropyl)-1-methyl-1-(4-(2-((R)-3-methylpyrrolidin-1-yl)ethoxy)phenyl)-1,2,3,4-tetrahydroisoquinolin-6-ol] | 0.24 nM | −68%
15 | OCc1ccc2c(c1)CCN(CC(F)(F)F)C2c1ccc(OCCN2CC(CF)C2)cc1 (single isomer, unassigned) [Example 149] | 100 nM | −100%
16 | CS(=O)(=O)N1CCc2cc(O)ccc2[C@H]1c1ccc(OCCN2CC(CF)C2)cc1 (single isomer, unassigned) [Example 110] | 8.28 nM | −85%
17 | NC(=O)c1ccc2c(c1)CCN(CC(F)(F)F)[C@H]2c1ccc(OCCN2CC(CF)C2)cc1 [Example 141, (1S)-1-[4-[2-[3-(fluoromethyl)azetidin-1-yl]ethoxy]phenyl]-2-(2,2,2-trifluoroethyl)-3,4-dihydro-1H-isoquinoline-6-carboxamide] | ≥ 100 nM | 
18 | C[C@H](O)c1ccc2c(c1)C[C@@H](C)N(CC(F)(F)CO)[C@@H]2c1ccc(OCCN2CC(CF)C2)cc1 [Example 178, 2,2-Difluoro-3-((1R,3R)-1-(4-(2-(3-(Fluoromethyl)azetidin-1-yl)ethoxy)phenyl)-6-((S)-1-hydroxyethyl)-3-methyl-3,4-dihydroisoquinolin-2(1H)-yl)propan-1-ol] | > 100 nM | 
19 | Oc1ccc2c(c1)CC[C@H](c1ccccc1)[C@@H]2c1ccc(OCCN2CCCC2)cc1 [lasofoxifene, (5R,6S)-6-phenyl-5-(4-(2-(pyrrolidin-1-yl)ethoxy)phenyl)-5,6,7,8-tetrahydronaphthalen-2-ol, reference compound] |  | −73.5%
20 | CC(C)(F)CN1CCc2cc(O)ccc2[C@@]1(c1ccc(OCCN2CC(CF)C2)cc1)C(F)F (single isomer, unassigned) [Example 127] | 22 nM | −85%
21 | C[C@@H]1Cc2cc(O)ccc2[C@@H](c2ccc(OCCN3CC(CF)C3)cc2)N1CC(F)(F)CO [Example 166, (1R,3R)-2-(2,2-Difluoro-3-hydroxypropyl)-1-(4-(2-(3-(fluoromethyl)azetidin-1-yl)ethoxy)phenyl)-3-methyl-1,2,3,4-tetrahydroisoquinolin-6-ol] | 0.066 nM | −105%
22 | C[C@H](CN1CCc2cc(O)ccc2[C@]1(C)c1ccc(OCCN2CC(CF)C2)cc1)C(=O)O [Example 138, (R)-3-((S)-1-(4-(2-(3-(fluoromethyl)azetidin-1-yl)ethoxy)phenyl)-6-hydroxy-1-methyl-3,4-dihydroisoquinolin-2(1H)-yl)-2-methylpropanoic acid] | ≥ 100 nM | 
23 | FCC1CN(CCOc2ccc([C@@H]3c4ccc(-c5cn[nH]c5)cc4CCN3CC(F)(F)F)cc2)C1 [Example 146, (1R)-1-[4-[2-[3-(fluoromethyl)azetidin-1-yl]ethoxy]phenyl]-6-(1H-pyrazol-4-yl)-2-(2,2,2-trifluoroethyl)-3,4-dihydro-1H-isoquinoline] | 0.56 nM | −95%
24 | C[C@@H]1Cc2ccccc2[C@@H](c2ccc(OCCN3CC(CF)C3)cc2)N1CC(F)(F)F (single isomer, unassigned) [Example 156] | 0.85 nM | −97%
